# Assay results published in patent US20210070748A1, “INHIBITORS OF BRUTONS TYROSINE KINASE” (Pharmacyclics LLC, priority 2015, published 2021).
# Key:
# Assay type in all cases: biochemical
# [1] = biological target: T1, TEC (Homo sapiens, UniProt P42680); test: Inhibition of a panel of kinases, in vitro HotSpot kinase assay: TEC; conditions: D-compounds panel data; 1 μM ATP
# T1 sequence (P42680 1-631): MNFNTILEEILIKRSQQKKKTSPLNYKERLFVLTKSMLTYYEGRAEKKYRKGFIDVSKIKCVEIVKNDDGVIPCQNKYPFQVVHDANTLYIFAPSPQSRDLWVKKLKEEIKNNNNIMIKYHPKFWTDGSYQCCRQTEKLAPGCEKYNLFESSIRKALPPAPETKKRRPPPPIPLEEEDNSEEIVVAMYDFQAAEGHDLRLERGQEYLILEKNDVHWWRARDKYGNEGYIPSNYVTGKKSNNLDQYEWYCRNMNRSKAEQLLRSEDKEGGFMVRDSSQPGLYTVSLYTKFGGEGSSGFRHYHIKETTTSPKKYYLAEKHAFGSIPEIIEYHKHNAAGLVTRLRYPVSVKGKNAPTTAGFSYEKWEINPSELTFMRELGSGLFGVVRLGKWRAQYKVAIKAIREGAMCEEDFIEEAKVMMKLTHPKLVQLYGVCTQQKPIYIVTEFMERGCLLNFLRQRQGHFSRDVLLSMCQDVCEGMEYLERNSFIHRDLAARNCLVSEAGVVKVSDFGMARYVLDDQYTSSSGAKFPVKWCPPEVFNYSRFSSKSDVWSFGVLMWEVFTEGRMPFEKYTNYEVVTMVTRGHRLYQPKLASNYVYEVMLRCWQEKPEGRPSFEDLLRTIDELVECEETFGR
# Experimental: (§1) The degree of inhibition of a panel of kinases is determined using the in vitro HotSpot kinase assay (purified enzymes, ^33P-ATP, an appropriate substrate and 1 μM ATP).
# [2] = biological target: SRC (Homo sapiens, UniProt P12931); test: Inhibition of a panel of kinases, in vitro HotSpot kinase assay: SRC; conditions: D-compounds panel data; 1 μM ATP
# Experimental: as §1
# [3] = biological target: EGFR (Homo sapiens, UniProt P00533); test: Inhibition of a panel of kinases, in vitro HotSpot kinase assay: EGFR; conditions: D-compounds panel data; 1 μM ATP
# Experimental: as §1
# [4] = biological target: T2, ITK (Homo sapiens, UniProt Q08881); test: Inhibition of a panel of kinases, in vitro HotSpot kinase assay: ITK; conditions: D-compounds panel data; 1 μM ATP
# T2 sequence (Q08881 1-620): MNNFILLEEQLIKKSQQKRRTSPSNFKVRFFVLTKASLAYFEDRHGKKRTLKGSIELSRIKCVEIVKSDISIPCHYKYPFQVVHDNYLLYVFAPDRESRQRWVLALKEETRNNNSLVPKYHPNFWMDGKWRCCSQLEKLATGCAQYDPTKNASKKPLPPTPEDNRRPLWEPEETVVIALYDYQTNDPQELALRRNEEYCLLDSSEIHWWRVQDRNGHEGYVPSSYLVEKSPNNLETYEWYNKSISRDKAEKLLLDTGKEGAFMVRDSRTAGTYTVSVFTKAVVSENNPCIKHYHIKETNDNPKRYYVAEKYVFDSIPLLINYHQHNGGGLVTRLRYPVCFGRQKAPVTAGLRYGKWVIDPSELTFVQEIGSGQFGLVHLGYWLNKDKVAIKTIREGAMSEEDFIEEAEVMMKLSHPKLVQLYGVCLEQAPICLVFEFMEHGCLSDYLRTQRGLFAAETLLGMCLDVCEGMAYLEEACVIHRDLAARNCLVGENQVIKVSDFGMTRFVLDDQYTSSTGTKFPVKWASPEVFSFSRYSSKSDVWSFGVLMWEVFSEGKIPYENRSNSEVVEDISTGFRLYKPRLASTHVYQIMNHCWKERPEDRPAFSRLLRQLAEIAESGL
# Experimental: as §1
# [5] = biological target: T3, JAK3 (Homo sapiens, UniProt P52333); test: Inhibition of a panel of kinases, in vitro HotSpot kinase assay: JAK3; conditions: D-compounds panel data; 1 μM ATP; read-out: IC50 JAK3
# T3 sequence (P52333 1-1124): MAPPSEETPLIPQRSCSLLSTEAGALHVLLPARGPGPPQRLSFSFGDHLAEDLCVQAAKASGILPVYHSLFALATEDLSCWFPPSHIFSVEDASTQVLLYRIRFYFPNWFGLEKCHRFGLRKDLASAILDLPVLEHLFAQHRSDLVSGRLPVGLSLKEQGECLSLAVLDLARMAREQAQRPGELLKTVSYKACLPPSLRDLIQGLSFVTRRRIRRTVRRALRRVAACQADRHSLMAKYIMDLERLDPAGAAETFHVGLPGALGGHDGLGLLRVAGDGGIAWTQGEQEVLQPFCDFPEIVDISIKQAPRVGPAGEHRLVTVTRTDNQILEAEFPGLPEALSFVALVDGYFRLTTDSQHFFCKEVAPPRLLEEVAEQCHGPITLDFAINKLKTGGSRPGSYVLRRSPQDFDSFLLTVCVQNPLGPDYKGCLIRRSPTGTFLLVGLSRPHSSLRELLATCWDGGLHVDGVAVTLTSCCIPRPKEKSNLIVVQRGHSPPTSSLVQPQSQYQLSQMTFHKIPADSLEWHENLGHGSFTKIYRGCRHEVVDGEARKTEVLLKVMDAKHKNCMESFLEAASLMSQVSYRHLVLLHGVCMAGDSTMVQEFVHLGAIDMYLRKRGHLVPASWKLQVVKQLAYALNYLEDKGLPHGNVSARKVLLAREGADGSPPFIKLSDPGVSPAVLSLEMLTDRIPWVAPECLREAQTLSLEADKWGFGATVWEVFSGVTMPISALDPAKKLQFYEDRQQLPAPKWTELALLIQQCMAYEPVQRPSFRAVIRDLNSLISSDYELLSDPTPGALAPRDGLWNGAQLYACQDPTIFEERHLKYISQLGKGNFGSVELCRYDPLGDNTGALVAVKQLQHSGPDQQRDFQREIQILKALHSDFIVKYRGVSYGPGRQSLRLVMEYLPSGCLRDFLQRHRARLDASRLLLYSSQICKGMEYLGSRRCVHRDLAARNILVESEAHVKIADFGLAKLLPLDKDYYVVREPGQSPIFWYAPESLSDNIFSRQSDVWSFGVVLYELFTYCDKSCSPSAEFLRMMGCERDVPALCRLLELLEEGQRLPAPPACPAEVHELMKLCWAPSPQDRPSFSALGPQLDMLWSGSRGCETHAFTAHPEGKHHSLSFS
# Chain of EGFR (P00533 25-1210): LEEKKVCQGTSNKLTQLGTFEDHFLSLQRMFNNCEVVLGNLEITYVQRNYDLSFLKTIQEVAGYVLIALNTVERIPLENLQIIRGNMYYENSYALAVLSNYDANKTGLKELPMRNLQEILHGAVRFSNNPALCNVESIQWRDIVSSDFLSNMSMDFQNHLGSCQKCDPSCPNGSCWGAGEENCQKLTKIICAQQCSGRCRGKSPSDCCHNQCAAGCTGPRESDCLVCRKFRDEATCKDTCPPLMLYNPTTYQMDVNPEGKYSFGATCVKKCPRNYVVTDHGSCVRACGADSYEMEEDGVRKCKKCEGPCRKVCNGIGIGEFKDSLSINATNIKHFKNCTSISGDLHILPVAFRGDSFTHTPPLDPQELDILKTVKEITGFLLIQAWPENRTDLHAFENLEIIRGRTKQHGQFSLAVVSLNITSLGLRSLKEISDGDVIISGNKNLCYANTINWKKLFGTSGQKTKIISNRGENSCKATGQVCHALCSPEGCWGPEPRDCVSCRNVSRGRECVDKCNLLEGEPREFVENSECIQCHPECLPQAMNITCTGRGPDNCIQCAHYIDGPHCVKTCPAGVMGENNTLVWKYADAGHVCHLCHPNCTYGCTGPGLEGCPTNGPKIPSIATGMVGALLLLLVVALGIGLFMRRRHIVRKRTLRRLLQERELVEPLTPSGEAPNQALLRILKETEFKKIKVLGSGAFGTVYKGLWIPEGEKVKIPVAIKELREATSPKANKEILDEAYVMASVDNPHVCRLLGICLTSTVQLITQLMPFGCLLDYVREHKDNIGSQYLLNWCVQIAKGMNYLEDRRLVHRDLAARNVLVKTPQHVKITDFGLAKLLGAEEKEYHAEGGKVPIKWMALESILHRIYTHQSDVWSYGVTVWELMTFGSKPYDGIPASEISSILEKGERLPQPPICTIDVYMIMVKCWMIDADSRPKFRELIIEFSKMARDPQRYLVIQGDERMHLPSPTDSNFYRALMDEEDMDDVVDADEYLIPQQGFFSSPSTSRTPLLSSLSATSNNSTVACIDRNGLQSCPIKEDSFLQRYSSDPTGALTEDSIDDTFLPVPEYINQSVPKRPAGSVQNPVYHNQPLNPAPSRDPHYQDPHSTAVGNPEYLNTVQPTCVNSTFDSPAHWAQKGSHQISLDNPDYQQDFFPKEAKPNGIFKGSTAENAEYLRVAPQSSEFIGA
# Chain of SRC (P12931 whole entry): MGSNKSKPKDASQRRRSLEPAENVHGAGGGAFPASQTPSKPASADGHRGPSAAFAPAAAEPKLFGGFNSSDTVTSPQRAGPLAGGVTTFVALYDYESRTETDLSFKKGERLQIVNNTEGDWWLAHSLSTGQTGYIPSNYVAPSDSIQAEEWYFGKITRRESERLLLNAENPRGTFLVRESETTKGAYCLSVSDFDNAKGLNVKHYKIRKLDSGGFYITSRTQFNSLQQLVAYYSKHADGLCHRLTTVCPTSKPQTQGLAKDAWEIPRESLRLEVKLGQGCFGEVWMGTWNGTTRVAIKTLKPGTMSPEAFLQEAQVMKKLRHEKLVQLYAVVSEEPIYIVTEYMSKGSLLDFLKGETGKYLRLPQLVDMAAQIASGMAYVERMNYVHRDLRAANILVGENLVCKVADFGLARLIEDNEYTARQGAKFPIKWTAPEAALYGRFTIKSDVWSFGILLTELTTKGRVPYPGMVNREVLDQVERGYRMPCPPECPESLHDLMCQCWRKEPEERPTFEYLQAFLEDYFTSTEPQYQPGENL
SMILES,IC50 [1] [nM],IC50 [2] [nM],IC50 [3] [nM],IC50 [4] [nM],IC50 [5] [nM]
"C[C@@H]1[C@H](NC(=O)c2ccc(SC(F)(F)F)cc2)CCCN1c1cnc(C(N)=O)c(Nc2ccc(N3CCN(C)CC3)cc2)n1 [Example D-233, 5-[(2R,3R)-2-methyl-3-{4-[(trifluoromethyl)sulfanyl]benzamido}piperidin-1-yl]-3-{[4-(4-methylpiperazin-1-yl)phenyl]amino}pyrazine-2-carboxamide]",10 to 100,10 to 100,100 to 1000,100 to 1000,1000 to 10000
"C[C@@H]1[C@H](NC(=O)c2ccc3c(cnn3C)c2)CCCN1c1cnc(C(N)=O)c(Nc2ccc(N3CCN(C)CC3)cc2)n1 [Example D-234, N-[(2R,3R)-1-(5-carbamoyl-6-{[4-(4-methylpiperazin-1-yl)phenyl]amino}pyrazin-2-yl)-2-methylpiperidin-3-yl]-1-methyl-1H-indazole-5-carboxamide]",≤ 10,10 to 100,100 to 1000,10 to 100,100 to 1000
"C[C@@H]1[C@H](NC(=O)c2ccc(C3(O)CC3)cc2)CCCN1c1cnc(C(N)=O)c(Nc2cnn(C)c2)n1 [Example D-235, 5-[(2R,3R)-3-[4-(1-hydroxycyclopropyl)benzamido]-2-methylpiperidin-1-yl]-3-[(1-methyl-1H-pyrazol-4-yl)amino]pyrazine-2-carboxamide]",≤ 10,10 to 100,100 to 1000,100 to 1000,100 to 1000
"C[C@H]1CC[C@@H](NC(=O)c2ccc(C(C)(C)O)cc2)CN1c1cnc(C(N)=O)c(Nc2cnn(C)c2)n1 [Example D-236, 5-[(2S,5R)-5-[4-(2-hydroxypropan-2-yl)benzamido]-2-methylpiperidin-1-yl]-3-[(1-methyl-1H-pyrazol-4-yl)amino]pyrazine-2-carboxamide]",≤ 10,10 to 100,100 to 1000,100 to 1000,100 to 1000
"C[C@@H]1[C@H](NC(=O)c2ccc3scnc3c2)CCCN1c1cnc(C(N)=O)c(Nc2cnn(C)c2)n1 [Example D-237, N-[(2R,3R)-1-{5-carbamoyl-6-[(1-methyl-1H-pyrazol-4-yl)amino]pyrazin-2-yl}-2-methylpiperidin-3-yl]-1,3-benzothiazole-5-carboxamide]",≤ 10,10 to 100,1000 to 10000,100 to 1000,100 to 1000
"Cc1nc2cc(C(=O)N[C@@H]3CCCN(c4cnc(C(N)=O)c(Nc5cnn(C)c5)n4)[C@@H]3C)ccc2o1 [Example D-238, N-[(2R,3R)-1-{5-carbamoyl-6-[(1-methyl-1H-pyrazol-4-yl)amino]pyrazin-2-yl}-2-methylpiperidin-3-yl]-2-methyl-1,3-benzoxazole-5-carboxamide]",≤ 10,10 to 100,100 to 1000,100 to 1000,100 to 1000
"C[C@@H]1[C@H](NC(=O)c2cnc(C(C)(C)C)s2)CCCN1c1cnc(C(N)=O)c(Nc2cnn(C)c2)n1 [Example D-239, 5-[(2R,3R)-3-(2-tert-butyl-1,3-thiazole-5-amido)-2-methylpiperidin-1-yl]-3-[(1-methyl-1H-pyrazol-4-yl)amino]pyrazine-2-carboxamide]",≤ 10,10 to 100,100 to 1000,100 to 1000,100 to 1000
"C[C@@H]1[C@H](NC(=O)c2ccc(C(O)(C(F)(F)F)C(F)(F)F)cc2)CCCN1c1cnc(C(N)=O)c(Nc2cnn(C)c2)n1 [Example D-240, 5-[(2R,3R)-3-[4-(1,1,1,3,3,3-hexafluoro-2-hydroxypropan-2-yl)benzamido]-2-methylpiperidin-1-yl]-3-[(1-methyl-1H-pyrazol-4-yl)amino]pyrazine-2-carboxamide]",10 to 100,100 to 1000,100 to 1000,100 to 1000,1000 to 10000
"C[C@@H]1[C@H](NC(=O)c2ccc(SC(F)(F)F)cc2)CCCN1c1cnc(C(N)=O)c(Nc2cnn(C)c2)n1 [Example D-241, 3-[(1-methyl-1H-pyrazol-4-yl)amino]-5-[(2R,3R)-2-methyl-3-{4-[(trifluoromethyl)sulfanyl]benzamido}piperidin-1-yl]pyrazine-2-carboxamide]",10 to 100,10 to 100,100 to 1000,1000 to 10000,1000 to 10000
"Cc1nc2cc(C(=O)N[C@@H]3CCCN(c4cnc(C(N)=O)c(Nc5cnn(C)c5)n4)[C@@H]3C)ccc2s1 [Example D-242, N-[(2R,3R)-1-{5-carbamoyl-6-[(1-methyl-1H-pyrazol-4-yl)amino]pyrazin-2-yl}-2-methylpiperidin-3-yl]-2-methyl-1,3-benzothiazole-5-carboxamide]",≤ 10,10 to 100,1000 to 10000,100 to 1000,100 to 1000
